Reference: US9486506B2 (Novo Nordisk A/S, priority 2011, dated 2016)
Like-named read-outs stand apart in the source and are kept apart here. Numbered stars: 1 amine (or outer) side, 2 acyl side, 3 side chain; on linkers, the order of the positions; unused ones are H or OH. Side chains are listed from the residue outwards. Peptide text beside a SMILES is read from it. * marks the point of attachment. C18 diacid = O=C(O)CCCCCCCCCCCCCCCCC(=O)*; C16 diacid = O=C(O)CCCCCCCCCCCCCCC(=O)*; γGlu = O=C(O)[C@H](CCC(=O)[*:2])N[*:1]; C14 diacid = O=C(O)CCCCCCCCCCCCC(=O)*; AEEA = NCCOCCOCC(=O)O

How the values were obtained:
[1] = Assay (XI) Pharmacokinetic study in minipigs; format: in vivo, Göttingen minipigs; details: minipig, iv, i.v. administration, terminal half-life, read-out: iv PK minipig [T½] (converted)
Protocol: Buffer: • 50 mM Dinatriumphosphatdihydrat • 184 mM Propylenglycol • 58 mM Phenol • pH adjusted to 8.15 with H3PO4. In cases where pH was adjusted to 8.15 after re-suspension of analogues, 0.2 M NaOH was used. Assay (XI) Pharmacokinetic Study in Minipigs
This is done in a pharmacokinetic (PK) study, whereamong other parameters the terminal half-life and the clearance of the derivative in question is determined. Increasing the terminal half-life and decreasing the clearance means that the compound of study is eliminated slower from the body.
Male or female Göttingen minipigs were obtained from Ellegaard Göttingen Minipigs (Dalmose, Denmark) approximately 7-14 months of age and weighing from approximately 16-35 kg were used in the studies. The minipigs were housed either individually (pigs with permanent catheters) or in a group and fed restrictedly once or twice daily with SDS minipig diet (Special Diets Services, Essex, UK). In some studies two permanent central venous catheters were implanted in vena cava caudalis or cranialis in each animal after at least 2 weeks of acclimatisation. […] On each dosing occasion these pigs were instrumented with a venflon in one ear vein through which the derivatives were dosed. Blood sampling was done by venipuncture in v. jugularis or v. cava cranialis
The animals were either unfasted or fasted for approximately 18 h before dosing and from 0 to 4 h after dosing, but had ad libitum access to water during the whole period.
Intravenous injections (the volume corresponding to usually 2-3 nmol/kg, for example 0.1 ml/kg) of the compounds were given through one catheter or through the venflon, and blood was sampled at predefined time points for up till 13 days post dosing (preferably through the other catheter or by venipuncture). Blood samples (for example 0.8 ml) were collected in tubes with EDTA buffer (8 mM) (sometimes aprotinin 500 KIU/ml blood was added) and then centrifuged at 4° C. and 1942 G for 10 minutes. […] Based on these measurements, time-plasma concentration profiles for the compound of study are plotted and a so-called non-compartmental pharmacokinetic analysis of the data is performed in WinNonlin v. 5.0 or Phoenix v. 6.2 (Pharsight Inc., Mountain View, Calif., USA) or other relevant software for PK analysis. For most compounds, the terminal part of the plasma-concentration profiles will be linear when drawn in a semi-logarithmic plot, reflecting that after the initial distribution, drug is removed from the body at a constant fractional rate. The rate (lambda Z or is equal to minus the slope of the terminal part of the plot. From this rate, also the terminal half-life may be calculated, as t½=ln(2)/λz (see, e.g., Johan Gabrielsson and Daniel Weiner: Pharmacokinetics and Pharmacodynamic Data Analysis. Concepts & Applications, 3rd Ed., Swedish Pharmaceutical Press, Stockholm (2000)).
Clearance is defined as the dose (D) divided by area under the curve (AUC) on the plasmaconcentration versus time profile (Rowland, M and Tozer T N: Clinical Pharmacokinetics: Concepts and Applications, 3rd edition, 1995 Williams Wilkins)

[2] = Assay (X) Chemical stability assessment by RP-UPLC; format: physicochemical; details: pH 8.15, 14 days at 37° C. vs 5° C., 333 μM
glucagon receptor = biological target: T1, glucagon receptor (Homo sapiens, UniProt P47871); assay: Assay (I) Glucagon activity (cAMP biosensor, FLIPR); format: cell-based
T1 construct: expressed in transfected cells
T1 sequence (P47871 26-477): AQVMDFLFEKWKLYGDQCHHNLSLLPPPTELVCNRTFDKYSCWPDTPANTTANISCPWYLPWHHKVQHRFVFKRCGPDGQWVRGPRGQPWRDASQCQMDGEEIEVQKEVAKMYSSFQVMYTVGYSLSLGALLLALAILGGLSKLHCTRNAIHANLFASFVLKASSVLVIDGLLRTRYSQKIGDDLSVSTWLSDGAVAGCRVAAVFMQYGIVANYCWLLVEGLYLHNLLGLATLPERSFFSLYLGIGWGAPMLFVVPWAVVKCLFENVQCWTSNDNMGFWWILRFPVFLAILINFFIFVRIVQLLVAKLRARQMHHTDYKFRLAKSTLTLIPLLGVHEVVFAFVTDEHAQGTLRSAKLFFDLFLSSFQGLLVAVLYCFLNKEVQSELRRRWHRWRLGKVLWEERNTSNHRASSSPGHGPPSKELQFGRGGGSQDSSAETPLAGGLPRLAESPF

Compound	half-life ([1]; in vivo) [h]	Chemical stability [Purity loss/14 days 37 C.] [2] [%]	half-life ([1]; both sexes, Göttingen, plasma) [h]	EC50 (glucagon receptor) [nM]
CC(C)C[C@H](NC(=O)[C@H](CC(=O)O)NC(=O)[C@H](CC(C)C)NC(=O)[C@H](Cc1ccc(O)cc1)NC(=O)[C@H](CCCCN)NC(=O)[C@H](CO)NC(=O)[C@H](Cc1ccc(O)cc1)NC(=O)[C@H](CC(=O)O)NC(=O)[C@H](CO)NC(=O)[C@@H](NC(=O)[C@H](Cc1ccccc1)NC(=O)[C@@H](NC(=O)CNC(=O)[C@H](CCC(N)=O)NC(=O)[C@H](CO)NC(=O)[C@@H](N)Cc1c[nH]cn1)[C@@H](C)O)[C@@H](C)O)C(=O)N[C@@H](CCCNC(=N)N)C(=O)N[C@@H](CCCNC(=N)N)C(=O)N[C@@H](C)C(=O)N[C@@H](CCC(N)=O)C(=O)N[C@@H](CC(=O)O)C(=O)N[C@@H](Cc1ccccc1)C(=O)N[C@H](C(=O)N[C@@H](CCCCNC(=O)CC[C@H](NC(=O)CC[C@H](NC(=O)COCCOCCNC(=O)COCCOCCNC(=O)CC[C@H](NC(=O)CCCCCCCCCCCCCCCCC(=O)O)C(=O)O)C(=O)O)C(=O)O)C(=O)N[C@@H](Cc1c[nH]c2ccccc12)C(=O)N[C@@H](CC(C)C)C(=O)N[C@@H](CC(C)C)C(=O)N[C@@H](CO)C(=O)N[C@H](C(=O)O)[C@@H](C)O)C(C)C [Example 13, N^ε24-[(4S)-4-carboxy-4-[[(4S)-4-carboxy-4-[[2-[2-[2-[[2-[2-[2-[[(4S)-4-carboxy-4-(17-carboxyheptadecanoylamino)butanoyl]amino]ethoxy]ethoxy]acetyl]amino]ethoxy]ethoxy]acetyl]amino]butanoyl]amino]butanoyl]-[Leu^16,Lys^24,Leu^27,Ser^25]-Glucagon] (H-HSQGTFTSDYSKYLDLRRAQDFVK([γGlu-γGlu-AEEA-AEEA-γGlu-C18 diacid])WLLST-OH; N-terminus and C-terminus assumed)	76.4	5.1	–	–
CC(C)C[C@H](NC(=O)[C@H](CC(=O)O)NC(=O)[C@H](CC(C)C)NC(=O)[C@H](Cc1ccc(O)cc1)NC(=O)[C@H](CCCNC(=N)N)NC(=O)[C@H](CO)NC(=O)[C@H](Cc1ccc(O)cc1)NC(=O)[C@H](CC(=O)O)NC(=O)[C@H](CO)NC(=O)[C@@H](NC(=O)[C@H](Cc1ccccc1)NC(=O)[C@@H](NC(=O)CNC(=O)[C@H](CCC(N)=O)NC(=O)[C@H](CO)NC(=O)[C@@H](N)Cc1c[nH]cn1)[C@@H](C)O)[C@@H](C)O)C(=O)N[C@@H](CCCNC(=N)N)C(=O)N[C@@H](CCCNC(=N)N)C(=O)N[C@@H](C)C(=O)N[C@@H](CCC(N)=O)C(=O)N[C@@H](CC(=O)O)C(=O)N[C@@H](Cc1ccccc1)C(=O)N[C@H](C(=O)N[C@@H](CCCCNC(=O)CC[C@H](NC(=O)CC[C@H](NC(=O)COCCOCCNC(=O)COCCOCCNC(=O)CC[C@H](NC(=O)CCCCCCCCCCCCC(=O)O)C(=O)O)C(=O)O)C(=O)O)C(=O)N[C@@H](Cc1c[nH]c2ccccc12)C(=O)N[C@@H](CC(C)C)C(=O)N[C@@H](CC(C)C)C(=O)N[C@@H](CO)C(=O)N[C@H](C(=O)O)[C@@H](C)O)C(C)C [Example 24, N^ε24-[(4S)-4-carboxy-4-[[(4S)-4-carboxy-4-[[2-[2-[2-[[2-[2-[2-[[(4S)-4-carboxy-4-(13-carboxytridecanoylamino)butanoyl]amino]ethoxy]ethoxy]acetyl]amino]ethoxy]ethoxy]acetyl]amino]butanoyl]amino]butanoyl]-[Arg^12,Leu^16,Lys^24,Leu^27,Ser^28]-Glucagon] (H-HSQGTFTSDYSRYLDLRRAQDFVK([γGlu-γGlu-AEEA-AEEA-γGlu-C14 diacid])WLLST-OH)	–	–	4.1	0.006
CC(C)C[C@H](NC(=O)[C@H](CC(=O)O)NC(=O)[C@H](CC(C)C)NC(=O)[C@H](Cc1ccc(O)cc1)NC(=O)[C@H](CCCNC(=N)N)NC(=O)[C@H](CO)NC(=O)[C@H](Cc1ccc(O)cc1)NC(=O)[C@H](CC(=O)O)NC(=O)[C@H](CO)NC(=O)[C@@H](NC(=O)[C@H](Cc1ccccc1)NC(=O)[C@@H](NC(=O)CNC(=O)[C@H](CCC(N)=O)NC(=O)[C@H](CO)NC(=O)[C@@H](N)Cc1c[nH]cn1)[C@@H](C)O)[C@@H](C)O)C(=O)N[C@@H](CCCNC(=N)N)C(=O)N[C@@H](CCCNC(=N)N)C(=O)N[C@@H](C)C(=O)N[C@@H](CCC(N)=O)C(=O)N[C@@H](CC(=O)O)C(=O)N[C@@H](Cc1ccccc1)C(=O)N[C@H](C(=O)N[C@@H](CCCCNC(=O)CC[C@H](NC(=O)CC[C@H](NC(=O)COCCOCCNC(=O)COCCOCCNC(=O)CC[C@H](NC(=O)CCCCCCCCCCCCCCC(=O)O)C(=O)O)C(=O)O)C(=O)O)C(=O)N[C@@H](Cc1c[nH]c2ccccc12)C(=O)N[C@@H](CC(C)C)C(=O)N[C@@H](CC(C)C)C(=O)N[C@@H](CO)C(=O)N[C@H](C(=O)O)[C@@H](C)O)C(C)C [Example 25, N^ε24-[(4S)-4-carboxy-4-[[(4S)-4-carboxy-4-[[2-[2-[2-[[2-[2-[2-[[(4S)-4-carboxy-4-(15-carboxypentadecanoylamino)butanoyl]amino]ethoxy]ethoxy]acetyl]amino]ethoxy]ethoxy]acetyl]amino]butanoyl]amino]butanoyl]-[Arg^12,Leu^16,Lys^24,Leu^27,Ser^28]-Glucagon] (H-HSQGTFTSDYSRYLDLRRAQDFVK([γGlu-γGlu-AEEA-AEEA-γGlu-C16 diacid])WLLST-OH)	–	–	59.6	0.067
CC(C)C[C@H](NC(=O)[C@H](Cc1ccc(O)cc1)NC(=O)[C@H](CCCNC(=N)N)NC(=O)[C@H](CO)NC(=O)[C@H](Cc1ccc(O)cc1)NC(=O)[C@H](CC(=O)O)NC(=O)[C@H](CO)NC(=O)[C@@H](NC(=O)[C@H](Cc1ccccc1)NC(=O)[C@@H](NC(=O)CNC(=O)[C@H](CCC(N)=O)NC(=O)[C@H](CO)NC(=O)[C@@H](N)Cc1c[nH]cn1)[C@@H](C)O)[C@@H](C)O)C(=O)N[C@@H](CC(=O)O)C(=O)N[C@@H](C)C(=O)N[C@@H](CCCNC(=N)N)C(=O)N[C@@H](CCCNC(=N)N)C(=O)N[C@@H](C)C(=O)N[C@@H](CCC(N)=O)C(=O)N[C@@H](CC(=O)O)C(=O)N[C@@H](Cc1ccccc1)C(=O)N[C@H](C(=O)N[C@@H](CCCCNC(=O)CC[C@H](NC(=O)CC[C@H](NC(=O)COCCOCCNC(=O)COCCOCCNC(=O)CC[C@H](NC(=O)CCCCCCCCCCCCCCCCC(=O)O)C(=O)O)C(=O)O)C(=O)O)C(=O)N[C@@H](Cc1c[nH]c2ccccc12)C(=O)N[C@@H](CC(C)C)C(=O)N[C@@H](CC(C)C)C(=O)N[C@@H](CO)C(=O)N[C@H](C(=O)O)[C@@H](C)O)C(C)C [Example 16, N^ε24-[(4S)-4-carboxy-4-[[(4S)-4-carboxy-4-[[2-[2-[2-[[2-[2-[2-[[(4S)-4-carboxy-4-(17-carboxyheptadecanoylamino)butanoyl]amino]ethoxy]ethoxy]acetyl]amino]ethoxy]ethoxy]acetyl]amino]butanoyl]amino]butanoyl]-[Arg^12,Ala^16,Lys^24,Leu^27,Ser^28]-Glucagon] (H-HSQGTFTSDYSRYLDARRAQDFVK([γGlu-γGlu-AEEA-AEEA-γGlu-C18 diacid])WLLST-OH)	–	–	86.6	0.158
